From patent US8598120B2 (Amylin Pharmaceuticals, LLC, priority 2004, dated 2013)
Square brackets hold non-standard residues; d marks the D form. * marks the point of attachment. Pentanoyl(4-Me) = CC(C)CCC(=O)*; Aib = CC(C)(N)C(=O)O; For = O=C*

Assay: Food intake assay in overnight fasted mice
Assay type: in vivo
Conditions: 25 nmol/kg intraperitoneal
Procedure: Female NIH/Swiss mice (8-14 weeks old) were group housed with a 12:12 hour light:dark cycle. Water and a standard pelleted mouse chow diet are available ad libitum, except as noted. Animals are fasted starting at approximately 1500 hrs, 1 day prior to experiment.
The effects of treatment on food intake are expressed as % change relative to control.

Substance	cumulative food intake compared to vehicle, 30 min [%]	cumulative food intake compared to vehicle, 60 min [%]	cumulative food intake compared to vehicle, 120 min [%]	cumulative food intake compared to vehicle, 180 min [%]
ACDTATCVLGRLSQELHRLQTYPRTNTGSNTY [Compound 92]	−31	−29	−30	−27
Ac-ACNTATCVLGRLSQELHK(PEG5000)LQTYPRTNTGSNTY [Compound 47]	−5	−13	−27	
CANLSTCVLGRLSQELHRLQTYPRTNTGSNTY [Compound 19]	−25	−25	−35	−31
CNTATCVLGRLADFLHRLQTYPRTNTGSNTY [Compound 110]	−80	−72	−59	
CSALSTCVLGRLSQELHRLQTYPRTNTGSNTY [Compound 26]	−29	−36	−47	
CSNASTCVLGRLSQELHRLQTYPRTNTGSNTY [Compound 21]	9	−5	−18	−18
CSNLATCVLGRLSQELHRLQTYPRTNTGSNTY [Compound 22]	−11	−20	−31	−30
CSNLSACVLGRLSQELHRLQTYPRTNTGSNTY [Compound 23]	8	0	−19	−12
DSNLSTKVLGRLSQELHRLQTYPRTNTGSNTY [Compound 68]	−10	−13	−21	
Isocaproyl-STAVL(Aib)RLSQELRLQTYPRTNTGSGTP ({Pentanoyl(4-Me)}-STAVL[Aib]RLSQELRLQTYPRTNTGSGTP-NH2; SMILES CC(C)CCC(=O)N[C@@H](CO)C(=O)N[C@H](C(=O)N[C@@H](C)C(=O)N[C@H](C(=O)N[C@@H](CC(C)C)C(=O)NC(C)(C)C(=O)N[C@@H](CCCNC(=N)N)C(=O)N[C@@H](CC(C)C)C(=O)N[C@@H](CO)C(=O)N[C@@H](CCC(N)=O)C(=O)N[C@@H](CCC(=O)O)C(=O)N[C@@H](CC(C)C)C(=O)N[C@@H](CCCNC(=N)N)C(=O)N[C@@H](CC(C)C)C(=O)N[C@@H](CCC(N)=O)C(=O)N[C@H](C(=O)N[C@@H](Cc1ccc(O)cc1)C(=O)N1CCC[C@H]1C(=O)N[C@@H](CCCNC(=N)N)C(=O)N[C@H](C(=O)N[C@@H](CC(N)=O)C(=O)N[C@H](C(=O)NCC(=O)N[C@@H](CO)C(=O)NCC(=O)N[C@H](C(=O)N1CCC[C@H]1C(N)=O)[C@@H](C)O)[C@@H](C)O)[C@@H](C)O)[C@@H](C)O)C(C)C)[C@@H](C)O) [Compound 29]	4	−1	−25	
Isocaproyl-STAVL(Aib)[K(For)]LSQEL(Aib)[K(For)]LQTYPRTNTGSNTY ({Pentanoyl(4-Me)}-STAVL[Aib]K(For)LSQEL[Aib]K(For)LQTYPRTNTGSNTY-NH2; SMILES CC(C)CCC(=O)N[C@@H](CO)C(=O)N[C@H](C(=O)N[C@@H](C)C(=O)N[C@H](C(=O)N[C@@H](CC(C)C)C(=O)NC(C)(C)C(=O)N[C@@H](CCCCNC=O)C(=O)N[C@@H](CC(C)C)C(=O)N[C@@H](CO)C(=O)N[C@@H](CCC(N)=O)C(=O)N[C@@H](CCC(=O)O)C(=O)N[C@@H](CC(C)C)C(=O)NC(C)(C)C(=O)N[C@@H](CCCCNC=O)C(=O)N[C@@H](CC(C)C)C(=O)N[C@@H](CCC(N)=O)C(=O)N[C@H](C(=O)N[C@@H](Cc1ccc(O)cc1)C(=O)N1CCC[C@H]1C(=O)N[C@@H](CCCNC(=N)N)C(=O)N[C@H](C(=O)N[C@@H](CC(N)=O)C(=O)N[C@H](C(=O)NCC(=O)N[C@@H](CO)C(=O)N[C@@H](CC(N)=O)C(=O)N[C@H](C(=O)N[C@@H](Cc1ccc(O)cc1)C(N)=O)[C@@H](C)O)[C@@H](C)O)[C@@H](C)O)[C@@H](C)O)C(C)C)[C@@H](C)O) [Compound 31]	−11	−18	−23	
Isocaproyl-STAVL(Aib)[K(For)]LSQEL(Aib)[K(For)]LQTYPRTNVGSNTY ({Pentanoyl(4-Me)}-STAVL[Aib]K(For)LSQEL[Aib]K(For)LQTYPRTNVGSNTY-NH2; SMILES CC(C)CCC(=O)N[C@@H](CO)C(=O)N[C@H](C(=O)N[C@@H](C)C(=O)N[C@H](C(=O)N[C@@H](CC(C)C)C(=O)NC(C)(C)C(=O)N[C@@H](CCCCNC=O)C(=O)N[C@@H](CC(C)C)C(=O)N[C@@H](CO)C(=O)N[C@@H](CCC(N)=O)C(=O)N[C@@H](CCC(=O)O)C(=O)N[C@@H](CC(C)C)C(=O)NC(C)(C)C(=O)N[C@@H](CCCCNC=O)C(=O)N[C@@H](CC(C)C)C(=O)N[C@@H](CCC(N)=O)C(=O)N[C@H](C(=O)N[C@@H](Cc1ccc(O)cc1)C(=O)N1CCC[C@H]1C(=O)N[C@@H](CCCNC(=N)N)C(=O)N[C@H](C(=O)N[C@@H](CC(N)=O)C(=O)N[C@H](C(=O)NCC(=O)N[C@@H](CO)C(=O)N[C@@H](CC(N)=O)C(=O)N[C@H](C(=O)N[C@@H](Cc1ccc(O)cc1)C(N)=O)[C@@H](C)O)C(C)C)[C@@H](C)O)[C@@H](C)O)C(C)C)[C@@H](C)O) [Compound 32]	−15	−21	−31	
Isocaproyl-STAVLG[K(For)]LSQELH[K(For)]LQTYPRTNTGSGTP ({Pentanoyl(4-Me)}-STAVLGK(For)LSQELHK(For)LQTYPRTNTGSGTP-NH2; SMILES CC(C)CCC(=O)N[C@@H](CO)C(=O)N[C@H](C(=O)N[C@@H](C)C(=O)N[C@H](C(=O)N[C@@H](CC(C)C)C(=O)NCC(=O)N[C@@H](CCCCNC=O)C(=O)N[C@@H](CC(C)C)C(=O)N[C@@H](CO)C(=O)N[C@@H](CCC(N)=O)C(=O)N[C@@H](CCC(=O)O)C(=O)N[C@@H](CC(C)C)C(=O)N[C@@H](Cc1c[nH]cn1)C(=O)N[C@@H](CCCCNC=O)C(=O)N[C@@H](CC(C)C)C(=O)N[C@@H](CCC(N)=O)C(=O)N[C@H](C(=O)N[C@@H](Cc1ccc(O)cc1)C(=O)N1CCC[C@H]1C(=O)N[C@@H](CCCNC(=N)N)C(=O)N[C@H](C(=O)N[C@@H](CC(N)=O)C(=O)N[C@H](C(=O)NCC(=O)N[C@@H](CO)C(=O)NCC(=O)N[C@H](C(=O)N1CCC[C@H]1C(N)=O)[C@@H](C)O)[C@@H](C)O)[C@@H](C)O)[C@@H](C)O)C(C)C)[C@@H](C)O) [Compound 30]	−1	−2	−19	
KCDTATCVLGRLSQELHRLQTYPRTNTGSNTY [Compound 111]	−39	−37	−32	
KCDTATCVTHRLAGLLSRSQTYPRTNTGSNTY [Compound 94]	−62	−42	−36	−31
KCNAATCVLGRLSQELHRLQTYPRTNTGSNTY [Compound 17]	−42	−30	−30	−25
KCNTAACVLGRLSQELHRLQTYPRTNTGSNTY [Compound 18]	−2	−7	−16	−21
KCNTASCVLGRLSQELHRLQTYPRTNTGSNTY [Compound 36]	−34	−22	−24	−25
KCNTATCATQRLSQELHRLQTYPRTNTGSNTY [Compound 51]	−44	−39	−35	
KCNTATCATQRLSQELHRLQTYPRTNVGSNTY [Compound 52]	−29	−24	−23	
KCNTATCLLQQLQKLLQKLKQYPRTNTGSNTY [Compound 35]	−20	−16	−18	
KCNTATCMLGRYTQDFHRLQTYPRTNTGSNTY [Compound 66]	−13	−15	−28	
KCNTATCVLG(homoK)LSQELH(homoK)LQTYPRTNTGSNTY [Compound 63]	−19	−22	−28	
KCNTATCVLG(homoR)LSQELH(homoR)LQTYPRTNTGSNTY [Compound 74]	−42	−32	−31	
KCNTATCVLGKLSQELHKLQTYPRTNTGSNTY [Compound 49]	−33	−26	−25	
KCNTATCVLGRLAAALHRLQTYPRTNTGSNTY [Compound 113]	−79	−86	−55	
